The record followed here is patent publication US8575158B2, “1-phenyl-substituted heterocyclyl derivatives and their use as prostaglandin D2 receptor modulators” (Actelion Pharmaceuticals Ltd., priority 2010, dated 2013).

The target in this assay is T1, hCRTH2 receptor (Homo sapiens, UniProt Q9Y5Y4).
T1 construct: expressed in transfected cells; host or cells: HEK293
T1 sequence (Q9Y5Y4 1-395): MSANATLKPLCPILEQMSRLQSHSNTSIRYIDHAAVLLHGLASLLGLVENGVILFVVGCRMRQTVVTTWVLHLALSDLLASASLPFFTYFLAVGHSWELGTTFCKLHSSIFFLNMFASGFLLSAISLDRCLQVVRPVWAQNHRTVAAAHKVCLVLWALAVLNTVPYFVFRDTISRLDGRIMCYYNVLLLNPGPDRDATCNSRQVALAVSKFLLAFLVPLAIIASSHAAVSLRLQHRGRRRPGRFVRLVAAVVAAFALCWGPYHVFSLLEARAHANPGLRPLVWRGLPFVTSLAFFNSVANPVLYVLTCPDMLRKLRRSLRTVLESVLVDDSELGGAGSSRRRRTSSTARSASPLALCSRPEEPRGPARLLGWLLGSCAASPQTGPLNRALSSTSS
As to the kind of experiment: Radioligand displacement assay (3H-PGD2) on hCRTH2 receptor membranes. The following applies: radioligand displacement (3H-PGD2), hCRTH2 receptor membranes; antagonistic activity. The format is binding. On the technique in general: Loss of bound radioactivity is the signal in a displacement assay; it reports binding, not function.

For `O=C(O)COc1ccc(Cl)cc1[C@@H]1c2ccccc2CCN1C(=O)[C@@H]1C[C@H]1c1cccc(Cl)c1` [Example 564, (4-Chloro-2-{(S)-2-[(1R,2R)-2-(3-chloro-phenyl)-cyclopropanecarbonyl]-1,2,3,4-tetrahydro-isoquinolin-1-yl}-phenoxy)-acetic acid], the IC50 is 0.00429 µM.

Molecule `O=C(O)COc1ccc(Cl)cc1[C@@H]1c2ccccc2CCN1C(=O)[C@@H]1C[C@H]1c1cccc(F)c1` [Example 565, (4-Chloro-2-{(S)-2-[(1R,2R)-2-(3-fluoro-phenyl)-cyclopropanecarbonyl]-1,2,3,4-tetrahydro-isoquinolin-1-yl}-phenoxy)-acetic acid] gave an IC50 of 0.00264 µM.

`O=C(O)COc1ccc(Cl)cc1[C@@H]1c2ccccc2CCN1C(=O)[C@@H]1C[C@H]1c1ccc(F)cc1` [Example 566, (4-Chloro-2-{(S)-2-[(1R,2R)-2-(4-fluoro-phenyl)-cyclopropanecarbonyl]-1,2,3,4-tetrahydro-isoquinolin-1-yl}-phenoxy)-acetic acid]: the IC50 was found to be 0.00217 µM.

Regarding `N#CNC(=O)COc1ccc(Cl)cc1[C@@H]1c2ccccc2CCN1C(=O)OCc1ccccc1` [Example 567, (S)-benzyl 1-(5-chloro-2-(2-cyanamido-2-oxoethoxy)phenyl)-3,4-dihydroisoquinoline-2(1H)-carboxylate], the IC50 came out at 0.37 µM.

`O=C(COc1ccc(Cl)cc1[C@@H]1c2ccccc2CCN1C(=O)OCc1ccccc1)NS(=O)(=O)C(F)(F)F` [Example 568, (S)-1-[5-Chloro-2-(2-oxo-2-trifluoromethanesulfonylamino-ethoxy)-phenyl]-3,4-dihydro-1H-isoquinoline-2-carboxylic acid benzyl ester] returned an IC50 of 0.00918 µM.

`O=C(COc1ccc(Cl)cc1[C@@H]1c2ccccc2CCN1C(=O)OCc1ccccc1)NO` [Example 569, (S)-1-(5-Chloro-2-hydroxycarbamoylmethoxy-phenyl)-3,4-dihydro-1H-isoquinoline-2-carboxylic acid benzyl ester]: the IC50 came to 0.12 µM.

Regarding `O=C(OCc1ccccc1)N1CCc2ccccc2C1c1cc(Cl)ccc1OCc1nnn[nH]1` (centres unmarked) [Example 570, (γ)-1-[5-Chloro-2-(1H-tetrazol-5-ylmethoxy)-phenyl]-3,4-dihydro-1H-isoquinoline-2-carboxylic acid benzyl ester], the IC50 amounted to 0.355 µM.

Turning to `O=C(OCc1ccccc1)N1CCc2ccccc2[C@H]1c1cc(Cl)ccc1OCc1n[nH]c(=O)o1` [Example 571, (S)-1-[5-Chloro-2-(5-oxo-4,5-dihydro-[1,3,4]oxadiazol-2-ylmethoxy)-phenyl]-3,4-dihydro-1H-isoquinoline-2-carboxylic acid benzyl ester], the IC50 was found to be 0.055 µM. This IC50 lies about 6.5-fold lower than the previous one.

Broadly, the IC50 is the concentration that gives 50% inhibition. Low readings indicate inhibition by little substance, high ones a need for much substance.
